Experimental data published in PubChem BioAssay AID180 (DTP/NCI, 2004).
Where “and” joins values, the source holds several entries; their conditions need not be identical. Equal values may be shown once.

System: BDF1 mice, Adenocarcinoma 755 s.c., tumor weight T/C
Test: NCI In Vivo Anticancer Drug Screen. Data for tumor model Adenocarcinoma 755 (subcutaneous) in B6D2F1 (BDF1) mice
Details: endpoint: mean tumor weight, higher = larger tumour
Summary of the method: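 Readout: T/C, i.e. treated-group measurement over vehicle-control measurement. Endpoint is survival or tumor size in tumor-bearing mice given compound.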

[1] = dose: 5.0 mg/kg/injection, schedule: Q01DX011 (ip), vehicle: methylcellulose (MC)
[2] = dose: 10.0 mg/kg/injection, schedule: Q01DX011 (ip), vehicle: methylcellulose (MC)

Compound: O=C1CCC(N2C(=O)c3ccccc3C2=O)C(=O)N1 (stereo not drawn)
- T/C (dose: 250.0 mg/kg/injection, schedule: Q01DX011 (ip), vehicle: carboxymethylcellulose (CMC)): 48 % of control
- T/C (dose: 375.0 mg/kg/injection, schedule: Q01DX011 (ip), vehicle: carboxymethylcellulose (CMC)): 56 % of control

Compound: NNc1ncnc2nc[nH]c12
- T/C (dose: 25.0 mg/kg/injection, schedule: Q01DX011 (ip), vehicle: carboxymethylcellulose (CMC)): 68 % of control
- T/C (dose: 37.5 mg/kg/injection, schedule: Q01DX011 (ip), vehicle: carboxymethylcellulose (CMC)): 57 % of control

Compound: CN(C)c1ccc(/C=C\c2ccnc3ccccc23)cc1
- T/C (dose: 3.1 mg/kg/injection, schedule: Q01DX011 (ip), vehicle: water): 100 % of control
- T/C [1]: 96 % of control
- T/C (dose: 6.25 mg/kg/injection, schedule: Q01DX011 (ip), vehicle: water): 97 % of control
- T/C [2]: 96 % of control
- T/C (dose: 12.5 mg/kg/injection, schedule: Q01DX011 (ip), vehicle: water): 90 % of control
- T/C (dose: 20.0 mg/kg/injection, schedule: Q01DX011 (ip), vehicle: methylcellulose (MC)): 86 % of control
- T/C (dose: 25.0 mg/kg/injection, schedule: Q01DX011 (ip), vehicle: water): 81 % of control
- T/C (dose: 50.0 mg/kg/injection, schedule: Q01DX011 (ip), vehicle: water): 55 % of control
- T/C (dose: 100.0 mg/kg/injection, schedule: Q01DX011 (ip), vehicle: water): 64 % of control

Compound: CC(=O)OCC1OC(n2cnc3c(=S)nc[nH]c32)C(OC(C)=O)C1OC(C)=O (stereo not drawn)
- T/C (dose: 0.2 mg/kg/injection, schedule: Q01DX011 (ip), vehicle: carboxymethylcellulose (CMC)): 84 % of control
- T/C (dose: 0.4 mg/kg/injection, schedule: Q01DX011 (ip), vehicle: carboxymethylcellulose (CMC)): 93 % of control
- T/C (dose: 0.9 mg/kg/injection, schedule: Q01DX011 (ip), vehicle: carboxymethylcellulose (CMC)): 61 % of control
- T/C (dose: 1.8 mg/kg/injection, schedule: Q01DX011 (ip), vehicle: carboxymethylcellulose (CMC)): 14 % of control and 31 % of control
- T/C (dose: 3.7 mg/kg/injection, schedule: Q01DX011 (ip), vehicle: carboxymethylcellulose (CMC)): 6 % of control
- T/C (dose: 7.5 mg/kg/injection, schedule: Q01DX011 (ip), vehicle: carboxymethylcellulose (CMC)): 3 % of control
- T/C (dose: 15.0 mg/kg/injection, schedule: Q01DX011 (ip), vehicle: carboxymethylcellulose (CMC)): 2 % of control

Compound: CC(Sc1ncnc2nc[nH]c12)c1ccccc1 (stereo not drawn)
- T/C (dose: 0.37 mg/kg/injection, schedule: Q01DX011 (ip), vehicle: methylcellulose (MC)): 60 % of control
- T/C (dose: 0.65 mg/kg/injection, schedule: Q01DX011 (ip), vehicle: methylcellulose (MC)): 83 % of control
- T/C (dose: 1.11 mg/kg/injection, schedule: Q01DX011 (ip), vehicle: methylcellulose (MC)): 35 % of control
- T/C (dose: 1.3 mg/kg/injection, schedule: Q01DX011 (ip), vehicle: methylcellulose (MC)): 97 % of control
- T/C (dose: 2.5 mg/kg/injection, schedule: Q01DX011 (ip), vehicle: methylcellulose (MC)): 37 % of control
- T/C (dose: 3.33 mg/kg/injection, schedule: Q01DX011 (ip), vehicle: methylcellulose (MC)): 62 % of control
- T/C [1]: 12 % of control
- T/C [2]: 18 % of control

Compound: O=CCC(O)C(O)C(O)CO (stereo not drawn)
- T/C (dose: 125.0 mg/kg/injection, schedule: Q01DX011 (ip), vehicle: carboxymethylcellulose (CMC)): 106 % of control and 122 % of control

Compound: CC(=O)[C@@]1(O)[C@H](C)C[C@H]2[C@@H]3C=C(C)C4=Cc5c(cnn5-c5ccccc5)C[C@]4(C)[C@H]3[C@@H](O)C[C@@]21C
- T/C (dose: 0.01 mg/kg/injection, schedule: Q01DX011 (sc), vehicle: steriod suspending solution): 70 % of control
- T/C (dose: 0.03 mg/kg/injection, schedule: Q01DX011 (sc), vehicle: steriod suspending solution): 43 % of control
- T/C (dose: 0.05 mg/kg/injection, schedule: Q01DX011 (sc), vehicle: steriod suspending solution): 41 % of control
- T/C (dose: 0.2 mg/kg/injection, schedule: Q01DX011 (sc), vehicle: steriod suspending solution): 27 % of control and 44 % of control
- T/C (dose: 0.3 mg/kg/injection, schedule: Q01DX011 (sc), vehicle: steriod suspending solution): 14 % of control and 28 % of control
- T/C (dose: 0.5 mg/kg/injection, schedule: Q01DX011 (sc), vehicle: steriod suspending solution): 33 % of control
- T/C (dose: 30.0 micrograms/kg/injection, schedule: Q01DX011 (ip), vehicle: saline): 115 % of control
- T/C (dose: 60.0 micrograms/kg/injection, schedule: Q01DX011 (ip), vehicle: saline): 115 % of control
- T/C (dose: 120.0 micrograms/kg/injection, schedule: Q01DX011 (ip), vehicle: saline): 105 % of control

Compound: CCC(C)C(N=C1N=CNC2=NC=NC12)C(=O)O (stereo not drawn)
- T/C (dose: 12.0 mg/kg/injection, schedule: Q01DX011 (ip), vehicle: methylcellulose (MC)): 108 % of control
- T/C (dose: 25.0 mg/kg/injection, schedule: Q01DX011 (ip), vehicle: methylcellulose (MC)): 106 % of control
- T/C (dose: 50.0 mg/kg/injection, schedule: Q01DX011 (ip), vehicle: methylcellulose (MC)): 80 % of control
- T/C (dose: 100.0 mg/kg/injection, schedule: Q01DX011 (ip), vehicle: methylcellulose (MC)): 98 % of control

Compound: CC1CN1P(=O)(N1CCc2ccccc21)N1CC1C (stereo not drawn)
- T/C (dose: 28.0 mg/kg/injection, schedule: Q01DX011 (ip), vehicle: carboxymethylcellulose (CMC)): 97 % of control
- T/C (dose: 56.0 mg/kg/injection, schedule: Q01DX011 (ip), vehicle: carboxymethylcellulose (CMC)): 67 % of control
- T/C (dose: 113.0 mg/kg/injection, schedule: Q01DX011 (ip), vehicle: carboxymethylcellulose (CMC)): 41 % of control
- T/C (dose: 226.0 mg/kg/injection, schedule: Q01DX011 (ip), vehicle: carboxymethylcellulose (CMC)): 2 % of control

Compound: [I][Hg][CH2]C1OCCOC1[CH2][Hg][I] (stereo not drawn)
- T/C (dose: 2.5 mg/kg/injection, schedule: Q01DX011 (ip), vehicle: carboxymethylcellulose (CMC)): 73 % of control
- T/C (dose: 5.0 mg/kg/injection, schedule: Q01DX011 (ip), vehicle: carboxymethylcellulose (CMC)): 39 % of control
- T/C (dose: 10.0 mg/kg/injection, schedule: Q01DX011 (ip), vehicle: carboxymethylcellulose (CMC)): 40 % of control
- T/C (dose: 11.0 mg/kg/injection, schedule: Q01DX011 (ip), vehicle: other): 73 % of control
- T/C (dose: 16.0 mg/kg/injection, schedule: Q01DX011 (ip), vehicle: carboxymethylcellulose (CMC)): 41 % of control
- T/C (dose: 20.0 mg/kg/injection, schedule: Q01DX011 (ip), vehicle: carboxymethylcellulose (CMC)): 30 % of control
- T/C (dose: 22.0 mg/kg/injection, schedule: Q01DX011 (ip), vehicle: other): 61 % of control
- T/C (dose: 32.0 mg/kg/injection, schedule: Q01DX011 (ip), vehicle: carboxymethylcellulose (CMC)): 6 % of control
- T/C (dose: 44.0 mg/kg/injection, schedule: Q01DX011 (ip), vehicle: other): 53 % of control
- T/C (dose: 66.0 mg/kg/injection, schedule: Q01DX011 (ip), vehicle: other): 37 % of control

Compound: Nc1nc(SCc2ccc(Cl)cc2Cl)c2ncn(C3OC(CO)C(O)C3O)c2n1 (stereo not drawn)
- T/C (dose: 4.69 mg/kg/injection, schedule: Q01DX011 (ip), vehicle: methylcellulose (MC)): 51 % of control
- T/C (dose: 9.38 mg/kg/injection, schedule: Q01DX011 (ip), vehicle: methylcellulose (MC)): 49 % of control
- T/C (dose: 18.75 mg/kg/injection, schedule: Q01DX011 (ip), vehicle: methylcellulose (MC)): 21 % of control
- T/C (dose: 37.5 mg/kg/injection, schedule: Q01DX011 (ip), vehicle: methylcellulose (MC)): 2 % of control

Compound: CCOc1ccccc1Nc1cc(Cl)nc(N)n1
- T/C (dose: 15.0 mg/kg/injection, schedule: Q01DX011 (ip), vehicle: methylcellulose (MC)): 96 % of control
- T/C (dose: 31.0 mg/kg/injection, schedule: Q01DX011 (ip), vehicle: methylcellulose (MC)): 66 % of control
- T/C (dose: 62.0 mg/kg/injection, schedule: Q01DX011 (ip), vehicle: methylcellulose (MC)): 70 % of control
- T/C (dose: 125.0 mg/kg/injection, schedule: Q01DX011 (ip), vehicle: methylcellulose (MC)): 95 % of control
- T/C (dose: 250.0 mg/kg/injection, schedule: Q01DX011 (ip), vehicle: methylcellulose (MC)): 70 % of control

Compound: CCCn1cnc2c(SCc3ccccc3)nc(N)nc21
- T/C (dose: 7.81 mg/kg/injection, schedule: Q01DX011 (ip), vehicle: methylcellulose (MC)): 43 % of control
- T/C (dose: 15.62 mg/kg/injection, schedule: Q01DX011 (ip), vehicle: methylcellulose (MC)): 9 % of control
- T/C (dose: 31.25 mg/kg/injection, schedule: Q01DX011 (ip), vehicle: methylcellulose (MC)): 37 % of control
- T/C (dose: 62.5 mg/kg/injection, schedule: Q01DX011 (ip), vehicle: methylcellulose (MC)): 1 % of control

Compound: CC(C)C(Sc1nc(N)nc2nc[nH]c12)C(=O)O (stereo not drawn)
- T/C (dose: 23.7 mg/kg/injection, schedule: Q01DX011 (ip), vehicle: carboxymethylcellulose (CMC)): 113 % of control
- T/C (dose: 47.5 mg/kg/injection, schedule: Q01DX011 (ip), vehicle: carboxymethylcellulose (CMC)): 81 % of control
- T/C (dose: 95.0 mg/kg/injection, schedule: Q01DX011 (ip), vehicle: carboxymethylcellulose (CMC)): 83 % of control
- T/C (dose: 190.0 mg/kg/injection, schedule: Q01DX011 (ip), vehicle: carboxymethylcellulose (CMC)): 64 % of control
